Test results as given in US20250171437A1 (Agios Pharmaceuticals,Inc., priority 2022, published 2025).

Target: T1, human PAH with the R408W mutation (A375 R408W cells) (Homo sapiens, UniProt P00439, R408W)
T1 construct: expressed in transfected cells
T1 sequence (P00439 1-452 R408W): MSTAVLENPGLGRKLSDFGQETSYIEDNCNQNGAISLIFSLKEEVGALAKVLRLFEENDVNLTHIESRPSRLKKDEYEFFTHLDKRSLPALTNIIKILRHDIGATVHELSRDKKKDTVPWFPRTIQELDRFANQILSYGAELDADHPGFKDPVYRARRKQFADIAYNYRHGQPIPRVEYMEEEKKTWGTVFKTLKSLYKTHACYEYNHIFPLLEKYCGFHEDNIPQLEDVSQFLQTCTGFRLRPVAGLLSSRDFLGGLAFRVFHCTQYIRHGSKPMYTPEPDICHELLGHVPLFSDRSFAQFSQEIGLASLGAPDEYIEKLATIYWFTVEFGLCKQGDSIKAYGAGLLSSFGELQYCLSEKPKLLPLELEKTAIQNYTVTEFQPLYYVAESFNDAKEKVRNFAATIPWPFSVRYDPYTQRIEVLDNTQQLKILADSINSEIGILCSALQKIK
Experiment: Cell Based Phenylalanine Flux Assay
Conditions: A375 R408W cells; 24 hrs with compound, then 20 μM sepiapterin and 800 μM 13C9,15N-Phenylalanine for 4 hours; 13C-Tyrosine by LC-MS; average where tested multiple times
Summary of the method: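 LC-MS quantitation of 13C-tyrosine in media gave AC50 values. Stable A375 R408W PAH cells were preincubated 24 h with compound, then fed 800 μM labelled Phe plus 20 μM sepiapterin for 4 h. Dose curves were 10-point, tested in duplicate, averaged over repeat runs.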

| AC50 | SMILES |
| --- | --- |
| ≤ 500 nM | C[C@@H](O)c1nc(C(F)F)c(C(=O)N2CCc3[nH]cnc3[C@H]2c2nc3cccc(F)c3o2)o1 [Example 245, (4-(difluoromethyl)-2-((R)-1-hydroxyethyl)oxazol-5-yl)((S)-4-(7-fluorobenzo[d]oxazol-2-yl)-6,7-dihydro-1H-imidazo[4,5-c]pyridin-5(4H)-yl)methanone] |
| ≤ 500 nM | C[C@@H](O)c1nc(C(F)F)c(C(=O)N2CCc3[nH]cnc3[C@@H]2c2nc3cccc(F)c3o2)o1 [Example 246, (4-(difluoromethyl)-2-((R)-1-hydroxyethyl)oxazol-5-yl)((R)-4-(7-fluorobenzo[d]oxazol-2-yl)-6,7-dihydro-1H-imidazo[4,5-c]pyridin-5(4H)-yl)methanone] |
| 500 to 1000 nM | Cc1nc([C@H](C)O)oc1C(=O)N1CCc2[nH]cnc2[C@H]1c1nc2cccc(F)c2o1 [Example 247, ((S)-4-(7-fluorobenzo[d]oxazol-2-yl)-6,7-dihydro-1H-imidazo[4,5-c]pyridin-5(4H)-yl)(2-((S)-1-hydroxyethyl)-4-methyloxazol-5-yl)methanone] |
| 1000 to 5000 nM | Cc1nc([C@H](C)O)oc1C(=O)N1CCc2[nH]cnc2[C@@H]1c1nc2cccc(F)c2o1 [Example 248, ((R)-4-(7-fluorobenzo[d]oxazol-2-yl)-6,7-dihydro-1H-imidazo[4,5-c]pyridin-5(4H)-yl)(2-((S)-1-hydroxyethyl)-4-methyloxazol-5-yl)methanone] |
| 500 to 1000 nM | CC(C)(O)c1nc(Br)c(C(=O)N2CCc3[nH]cnc3[C@H]2c2nc3ccc(F)cc3o2)o1 [Example 249, (S)-(4-bromo-2-(2-hydroxypropan-2-yl)oxazol-5-yl)(4-(6-fluorobenzo[d]oxazol-2-yl)-6,7-dihydro-1H-imidazo[4,5-c]pyridin-5(4H)-yl)methanone] |
| ≥ 5000 nM | CC(C)(O)c1nc(Br)c(C(=O)N2CCc3[nH]cnc3[C@@H]2c2nc3ccc(F)cc3o2)o1 [Example 250, (R)-(4-bromo-2-(2-hydroxypropan-2-yl)oxazol-5-yl)(4-(6-fluorobenzo[d]oxazol-2-yl)-6,7-dihydro-1H-imidazo[4,5-c]pyridin-5(4H)-yl)methanone] |
| 1000 to 5000 nM | CC(C)(O)c1nc(Br)c(C(=O)N2CCc3[nH]cnc3[C@@H]2c2nc3c(F)cccc3o2)o1 [Example 251, (R)-(4-bromo-2-(2-hydroxypropan-2-yl)oxazol-5-yl)(4-(4-fluorobenzo[d]oxazol-2-yl)-6,7-dihydro-1H-imidazo[4,5-c]pyridin-5(4H)-yl)methanone] |
| ≤ 500 nM | CC(C)(O)c1nc(Br)c(C(=O)N2CCc3[nH]cnc3[C@H]2c2nc3c(F)cccc3o2)o1 [Example 252, (S)-(4-bromo-2-(2-hydroxypropan-2-yl)oxazol-5-yl)(4-(4-fluorobenzo[d]oxazol-2-yl)-6,7-dihydro-1H-imidazo[4,5-c]pyridin-5(4H)-yl)methanone] |
| ≤ 500 nM | CC(C)(O)c1nc(C(F)(F)F)c(C(=O)N2CCc3[nH]cnc3[C@H]2c2nc3cccc(F)c3o2)o1 [Example 253, (S)-(4-(7-fluorobenzo[d]oxazol-2-yl)-6,7-dihydro-1H-imidazo[4,5-c]pyridin-5(4H)-yl)(2-(2-hydroxypropan-2-yl)-4-(trifluoromethyl)oxazol-5-yl)methanone] |
| ≤ 500 nM | CC(C)(O)c1nc(C(F)(F)F)c(C(=O)N2CCc3[nH]cnc3[C@@H]2c2nc3cccc(F)c3o2)o1 [Example 254, (R)-(4-(7-fluorobenzo[d]oxazol-2-yl)-6,7-dihydro-1H-imidazo[4,5-c]pyridin-5(4H)-yl)(2-(2-hydroxypropan-2-yl)-4-(trifluoromethyl)oxazol-5-yl)methanone] |
| ≤ 500 nM | CC(C)(O)c1nc(C(F)(F)F)c(C(=O)N2CCc3[nH]cnc3[C@H]2c2nc3ccc(F)cc3o2)o1 [Example 255, (S)-(4-(6-fluorobenzo[d]oxazol-2-yl)-6,7-dihydro-1H-imidazo[4,5-c]pyridin-5(4H)-yl)(2-(2-hydroxypropan-2-yl)-4-(trifluoromethyl)oxazol-5-yl)methanone] |
| 1000 to 5000 nM | CC(C)(O)c1nc(C(F)(F)F)c(C(=O)N2CCc3[nH]cnc3[C@@H]2c2nc3ccc(F)cc3o2)o1 [Example 256, (R)-(4-(6-fluorobenzo[d]oxazol-2-yl)-6,7-dihydro-1H-imidazo[4,5-c]pyridin-5(4H)-yl)(2-(2-hydroxypropan-2-yl)-4-(trifluoromethyl)oxazol-5-yl)methanone] |
| ≤ 500 nM | CC(C)(O)c1nc(C(F)(F)F)c(C(=O)N2CCc3[nH]cnc3[C@H]2c2nc3c(F)cccc3o2)o1 [Example 257, (S)-(4-(4-fluorobenzo[d]oxazol-2-yl)-6,7-dihydro-1H-imidazo[4,5-c]pyridin-5(4H)-yl)(2-(2-hydroxypropan-2-yl)-4-(trifluoromethyl)oxazol-5-yl)methanone] |
| 1000 to 5000 nM | CC(C)(O)c1nc(C(F)(F)F)c(C(=O)N2CCc3[nH]cnc3[C@@H]2c2nc3c(F)cccc3o2)o1 [Example 258, (R)-(4-(4-fluorobenzo[d]oxazol-2-yl)-6,7-dihydro-1H-imidazo[4,5-c]pyridin-5(4H)-yl)(2-(2-hydroxypropan-2-yl)-4-(trifluoromethyl)oxazol-5-yl)methanone] |
| 500 to 1000 nM | Cc1nc(C(C)(C)O)oc1C(=O)N1CCc2[nH]cnc2[C@H]1c1nc2c(F)cccc2o1 [Example 259, (S)-(4-(4-fluorobenzo[d]oxazol-2-yl)-6,7-dihydro-1H-imidazo[4,5-c]pyridin-5(4H)-yl)(2-(2-hydroxypropan-2-yl)-4-methyloxazol-5-yl)methanone] |
| ≥ 5000 nM | Cc1nc(C(C)(C)O)oc1C(=O)N1CCc2[nH]cnc2[C@@H]1c1nc2c(F)cccc2o1 [Example 260, (R)-(4-(4-fluorobenzo[d]oxazol-2-yl)-6,7-dihydro-1H-imidazo[4,5-c]pyridin-5(4H)-yl)(2-(2-hydroxypropan-2-yl)-4-methyloxazol-5-yl)methanone] |
| 500 to 1000 nM | O=C(c1ccnn1C(F)(F)F)N1CCc2[nH]cnc2[C@H]1c1nc2cc(F)ccc2o1 [Example 261, (S)-(4-(5-fluorobenzo[d]oxazol-2-yl)-6,7-dihydro-1H-imidazo[4,5-c]pyridin-5(4H)-yl)(1-(trifluoromethyl)-1H-pyrazol-5-yl)methanone] |
| 500 to 1000 nM | O=C(c1ccnn1C(F)(F)F)N1CCc2[nH]cnc2[C@@H]1c1nc2cc(F)ccc2o1 [Example 262, (R)-(4-(5-fluorobenzo[d]oxazol-2-yl)-6,7-dihydro-1H-imidazo[4,5-c]pyridin-5(4H)-yl)(1-(trifluoromethyl)-1H-pyrazol-5-yl)methanone] |
| ≤ 500 nM | CC(C)(O)c1nc(Br)c(C(=O)N2CCc3[nH]cnc3[C@H]2c2nc3cccc(F)c3o2)o1 [Example 263, (S)-(4-bromo-2-(2-hydroxypropan-2-yl)oxazol-5-yl)(4-(7-fluorobenzo[d]oxazol-2-yl)-6,7-dihydro-1H-imidazo[4,5-c]pyridin-5(4H)-yl)methanone] |
| 500 to 1000 nM | CC(C)(O)c1nc(Br)c(C(=O)N2CCc3[nH]cnc3[C@@H]2c2nc3cccc(F)c3o2)o1 [Example 264, (R)-(4-bromo-2-(2-hydroxypropan-2-yl)oxazol-5-yl)(4-(7-fluorobenzo[d]oxazol-2-yl)-6,7-dihydro-1H-imidazo[4,5-c]pyridin-5(4H)-yl)methanone] |
| 500 to 1000 nM | COCc1ccc2c(C(=O)N3CCc4[nH]cnc4[C@H]3c3nc4cccc(F)c4o3)cnn2c1 [Example 265, (S)-(4-(7-fluorobenzo[d]oxazol-2-yl)-6,7-dihydro-1H-imidazo[4,5-c]pyridin-5(4H)-yl)(6-(methoxymethyl)pyrazolo[1,5-a]pyridin-3-yl)methanone] |
| ≥ 5000 nM | COCc1ccc2c(C(=O)N3CCc4[nH]cnc4[C@@H]3c3nc4cccc(F)c4o3)cnn2c1 [Example 266, (R)-(4-(7-fluorobenzo[d]oxazol-2-yl)-6,7-dihydro-1H-imidazo[4,5-c]pyridin-5(4H)-yl)(6-(methoxymethyl)pyrazolo[1,5-a]pyridin-3-yl)methanone] |
| 1000 to 5000 nM | Cc1nc(C(C)(C)O)oc1C(=O)N1CCc2[nH]cnc2[C@@H]1c1nc2cccc(F)c2o1 [Example 267, (R)-(4-(7-fluorobenzo[d]oxazol-2-yl)-6,7-dihydro-1H-imidazo[4,5-c]pyridin-5(4H)-yl)(2-(2-hydroxypropan-2-yl)-4-methyloxazol-5-yl)methanone] |
| 500 to 1000 nM | Cc1nc(C(C)(C)O)oc1C(=O)N1CCc2[nH]cnc2[C@H]1c1nc2cccc(F)c2o1 [Example 268, (S)-(4-(7-fluorobenzo[d]oxazol-2-yl)-6,7-dihydro-1H-imidazo[4,5-c]pyridin-5(4H)-yl)(2-(2-hydroxypropan-2-yl)-4-methyloxazol-5-yl)methanone] |
| 500 to 1000 nM | CC(C)(O)c1nc(Cl)c(C(=O)N2CCc3[nH]cnc3[C@H]2c2nc3ccc(F)cc3o2)o1 [Example 269, (S)-(4-chloro-2-(2-hydroxypropan-2-yl)oxazol-5-yl)(4-(6-fluorobenzo[d]oxazol-2-yl)-6,7-dihydro-1H-imidazo[4,5-c]pyridin-5(4H)-yl)methanone] |
| ≥ 5000 nM | CC(C)(O)c1nc(Cl)c(C(=O)N2CCc3[nH]cnc3[C@@H]2c2nc3ccc(F)cc3o2)o1 [Example 270, (R)-(4-chloro-2-(2-hydroxypropan-2-yl)oxazol-5-yl)(4-(6-fluorobenzo[d]oxazol-2-yl)-6,7-dihydro-1H-imidazo[4,5-c]pyridin-5(4H)-yl)methanone] |
